Test results reported in US7985567B2, “Host cells and methods for producing 3-methyl-2-buten-1-ol, 3-methyl-3-buten-1-ol, and 3-methyl-butan-1-ol” (The Regents of the University of California, priority 2007, dated 2011).

Tested on: S. cerevisiae BY4741 cells
Test: In vivo reduction of 3-methyl-2-butenol or 3-methyl-3-butenol to 3-methyl-butanol by yeast
Type: cell-based, Saccharomyces cerevisiae
Conditions: 1 g/l substrate added after 48 hours, grown an additional 2 days; versus no substrate or 3-methyl-3-butenol; FIG. 3
Method: To test the capability of yeast to catalyze the conversion of 3-methyl-2-butenol to isopentanol, 5 ml. of YPD medium with 2% glycerol, in a 100 ml culture tube, was inoculated with an overnight culture of freshly plated S. cerevisiae BY4741 cells to achieve a final absorbance of 0.5 at 600 nm (A600). The cultures were grown at 30° C. at 200 r.p.m. After 48 hours, either 3-methyl-2-butenol or 3-methyl-3-butenol (1 g/l) was added to the culture.
Cultures were sampled after addition of 3-methyl-2-butenol or 3-methyl-3-butenol and grown for an additional 2 days. The samples were collected by pelleting 1 ml of culture, and adding 150 μl of the supernatant to 750 μl of the extraction solvent (80:20 chloroform:methanol spiked with 50 mg l^−1 of butanol internal standard). The samples were vortexed for 15 minutes and centrifuged for 2 minutes at 5000 r.c.f. 450 μl of the organic layer was removed from each sample and transferred to a clean GC vial for analysis. The GC-MS data were collected in full-scan mode (m/z 50-300) using a Tr-Wax column (0.25 mm×30 m, 0.25 μm film thickness; Thermo Electron) on a PolarisQ GC-MS with TriPlusautosampler (Thermo Electron). The carrier flow was 1.2 ml min^−1, and the inlet temperature was set to 200° C. The oven program was as follows: 40° C. […] Samples were normalized using the butanol internal standard and quantified using authentic standards.

CC(C)=CCO [3-methyl-2-butenol, 3-methyl-2-buten-1-ol]
isopentanol production by yeast grown in the presence of the alcohol substrate: significantly more isopentanol
